Assay results: patent US7229991B2, “Substituted 5-aminomethyl-1H-pyrrole-2-carboxamides” (priority 2002, dated 2007)
Where two headings read alike, the source gives them in different places.

Tests used:
5-HT uptake = molecular target: T1, 5-HT uptake (Rattus norvegicus, UniProt P31652); test: 5-HT uptake inhibition in rat brain synaptosomes (medulla and pons); assay type: biochemical; parameters: concentration or dose not given beside the values; details: conc. 10 (unit not given), [3H]-5-HT
T1 construct: Synaptosomes from rat brain regions (the “P2” fraction was used) were freshly isolated; from tissue; host or cells: rat brain synaptosomes (P2 fraction), medulla and pons
T1 sequence (P31652 whole entry): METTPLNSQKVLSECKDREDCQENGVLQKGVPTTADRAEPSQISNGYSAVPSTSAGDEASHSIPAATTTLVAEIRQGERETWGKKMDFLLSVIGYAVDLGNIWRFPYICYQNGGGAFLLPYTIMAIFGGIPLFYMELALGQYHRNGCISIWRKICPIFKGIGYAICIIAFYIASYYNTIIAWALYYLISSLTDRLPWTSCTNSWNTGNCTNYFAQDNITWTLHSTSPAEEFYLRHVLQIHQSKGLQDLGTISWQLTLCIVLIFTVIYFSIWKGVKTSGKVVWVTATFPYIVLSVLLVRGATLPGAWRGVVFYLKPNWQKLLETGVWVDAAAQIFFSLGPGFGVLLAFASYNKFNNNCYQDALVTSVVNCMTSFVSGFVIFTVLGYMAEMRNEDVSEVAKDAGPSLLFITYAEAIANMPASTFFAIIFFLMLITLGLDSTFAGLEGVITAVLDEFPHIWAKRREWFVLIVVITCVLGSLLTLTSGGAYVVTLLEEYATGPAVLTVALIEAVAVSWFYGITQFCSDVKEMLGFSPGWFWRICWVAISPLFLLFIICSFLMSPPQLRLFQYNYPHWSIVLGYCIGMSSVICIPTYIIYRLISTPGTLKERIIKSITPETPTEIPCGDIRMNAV
Excerpt: (§1) c) Method for Determining Noradrenalin and the 5-HT Uptake Inhibition:
(§2) Synaptosomes from rat brain regions (the “P2” fraction was used) were freshly isolated for in vitro studies, as described in the publication “The isolation of nerve endings from brain” by E. G. Gray and V. P. Whittaker, J. Anatomy 76, pages 79-88, 1962. The corresponding literature description is hereby introduced as a reference and is deemed to be part of the disclosure.
(§3) The tissue (hypothalamus for the determination of noradrenalin uptake inhibition and medulla and pons for the determination of 5-HT uptake inhibition) was homogenised in ice-cooled 0.32 M sucrose (100 mg of tissue/1 mL) in a glass homogeniser with teflon pestle using five complete up and down strokes at 840 revolutions/minute.
(§4) The homogenate was centrifuged at 4° C. for 10 minutes at 1000 g. After subsequent centrifugation at 17000 g for 55 minutes, the synaptosomes (P2 fraction) were obtained, which were resuspended in 0.32 M glucose (0.5 mL/100 mg of original weight).
(§5) The particular uptake was measured in a 96-well microtitre plate. The volume was 250 μl and the incubation proceeded at room temperature (approx. 20-25° C.) under an O2 atmosphere.
(§6) The incubation time was 7.5 minutes for [^3H]-NA and 5 minutes for [^3H]-5-HT. The 96 samples were then filtered through a Unifilter GF/B® microtitre plate (Packard) and washed with […] of incubated buffer using a “Brabdel MPXRI-96T Cell-Harvester”. The Unifilter GF/B plate was dried for 1 hour at 55° C. The plate was then sealed with a Back seal® (Packard) and 35 μl of scintillation fluid were added per well (Ultima gold®, Packard). After sealing with a top seal® (Packard) and establishment of equilibrium (around 5 hours), radioactivity was determined in a “Trilux 1450 Microbeta” (Wallac).
(§7) The quantity of protein used in the above determination corresponded to the values known from the literature, as for example described in “Protein measurement with the folin phenol reagent”, Lowry et al., J. Biol. Chem., 193, 265-275, 1951. A detailed description of the method may also be found in the literature, for example in M.Ch. Frink, H.-H. Hennies, W. Engelberger, M. Haurand and B. Wilffert (1996) Arzneim.-Forsch./Drug Res. 46 (III), 11, 1029-1036. The corresponding literature descriptions are hereby introduced as a reference and are deemed to be part of the disclosure.

human μ opiate receptor = human μ opiate receptor (Homo sapiens, UniProt P35372); test: human μ opiate receptor binding assay with [3H]-naloxone, CHO-K1 membrane preparation; details: for inhibition at 1 µM: read-out: Human ORm Nal inhibition [%]
Sequence of human μ opiate receptor (P35372 whole entry): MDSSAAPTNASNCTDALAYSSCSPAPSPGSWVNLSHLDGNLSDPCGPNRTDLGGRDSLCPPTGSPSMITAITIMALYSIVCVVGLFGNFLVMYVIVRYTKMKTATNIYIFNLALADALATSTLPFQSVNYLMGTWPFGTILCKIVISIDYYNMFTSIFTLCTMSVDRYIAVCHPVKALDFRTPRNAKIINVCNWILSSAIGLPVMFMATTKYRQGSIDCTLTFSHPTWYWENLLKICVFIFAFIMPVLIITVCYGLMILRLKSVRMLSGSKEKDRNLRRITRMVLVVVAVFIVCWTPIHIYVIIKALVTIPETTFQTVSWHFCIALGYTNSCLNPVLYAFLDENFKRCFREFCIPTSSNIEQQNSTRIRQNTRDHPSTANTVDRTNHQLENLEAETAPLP
Procedure: b) Method for Determining Affinity for the Human μ Opiate Receptor
Receptor affinity for the human μ opiate receptor was determined in a homogeneous batch in microtitre plates. To this end, dilution series of the particular substituted 5-aminomethyl-1H-pyrrole-2-carboxylic acid amide of the general formula I to be tested were incubated at room temperature for 90 minutes in a total volume of 250 μl with a receptor membrane preparation (15-40 μg of protein per 250 μl of incubation batch) of CHO—K1 cells, which express the human μ opiate receptor (RB—HOM receptor membrane preparation from NEN, Zaventem, Belgium) in the presence of 1 nmol/l of the radioactive ligand [^3H]-naloxone (NET719, from NEN, Zaventem, Belgium) and of 1 mg of WGA-SPA beads (wheat germ agglutinin SPA beads from Amersham/Pharmacia, Freiburg, Germany). The incubation buffer used was 50 mmol/l tris-HCl supplemented with 0.05 wt. % of sodium azide and with 0.06 wt. % of bovine serum albumin. 25 μmol/l of naloxone were additionally added to determine nonspecific binding. Once the ninety minute incubation time had elapsed, the microtitre plates were centrifuged off for 20 minutes at 1000 g and the radioactivity measured in a β-Counter (Microbeta-Trilux, from PerkinElmer Wallac, Freiburg, Germany). The percentage displacement of the radioactive ligand from its binding to the human μ opiate receptor was determined at a concentration of the compounds to be tested of 1 μmol/l and stated as percentage inhibition of specific binding. On the basis of the percentage displacement by different concentrations of the compounds to be tested of the general formula I, IC50 inhibition concentrations which bring about 50% displacement of the radioactive ligand were calculated. Ki values for the test substances were obtained by conversion using the Cheng-Prusoff equation.

NA transporter = molecular target: T2, NA transporter (Rattus norvegicus, UniProt Q63380); test: noradrenalin uptake inhibition in rat brain synaptosomes (hypothalamus); assay type: biochemical; parameters: concentration or dose not given beside the values; details: conc. 10 (unit not given), [3H]-NA
T2 construct: Synaptosomes from rat brain regions (the “P2” fraction was used) were freshly isolated; from tissue; host or cells: rat brain synaptosomes (P2 fraction), hypothalamus
T2 sequence (Q63380 1-617): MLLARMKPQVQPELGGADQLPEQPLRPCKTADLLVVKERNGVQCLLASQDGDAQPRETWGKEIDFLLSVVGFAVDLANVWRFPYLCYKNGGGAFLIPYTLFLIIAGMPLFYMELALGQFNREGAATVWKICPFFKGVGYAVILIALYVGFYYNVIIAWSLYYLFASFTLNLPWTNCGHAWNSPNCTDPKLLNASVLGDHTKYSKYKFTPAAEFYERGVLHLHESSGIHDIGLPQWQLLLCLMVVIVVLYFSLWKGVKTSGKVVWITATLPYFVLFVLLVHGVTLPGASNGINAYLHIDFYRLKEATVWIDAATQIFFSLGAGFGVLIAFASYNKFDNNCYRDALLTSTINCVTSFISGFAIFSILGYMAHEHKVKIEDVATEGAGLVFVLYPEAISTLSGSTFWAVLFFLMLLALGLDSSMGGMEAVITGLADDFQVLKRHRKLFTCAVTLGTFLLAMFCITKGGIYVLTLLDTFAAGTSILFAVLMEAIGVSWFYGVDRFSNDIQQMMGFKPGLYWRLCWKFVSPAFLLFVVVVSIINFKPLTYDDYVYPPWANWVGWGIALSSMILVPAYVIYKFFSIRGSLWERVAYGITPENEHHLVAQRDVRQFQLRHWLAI
Excerpt: as §1, §2, §3, §4, §5, §6
The following characteristics were determined for the NA transporter: NAuptake: Km=0.32±0.11 μM
as §7

[1] = [3H]-naloxone, from IC50 by the Cheng-Prusoff equation, read-out: Human ORm Nal Ki

SMILES: CN(C)C(c1ccccc1)c1ccc(C(=O)N2CCCC2)n1C.Cl (centres unmarked) [Example 11, [5-(Dimethylamino-phenyl-methyl)-1-methyl-1H-pyrrol-2-yl]-pyrrolidin-1-yl-methanone hydrochloride]
- 5-HT uptake inhibition [%] conc. 10 (5-HT uptake): 54%
- inhibition at 1 µM (human μ opiate receptor): 33%

SMILES: CCCCNC(=O)c1ccc(C(c2ccccc2)N(C)C)n1C.Cl (centres unmarked) [Example 10, 5-(Dimethylamino-phenyl-methyl)-1-methyl-1H-pyrrole-2-carboxylic acid butylamide hydrochloride]
- Noradrenalin uptake inhibition [%] conc. 10 (NA transporter): 52%

SMILES: CCCCNC(=O)c1ccc(C(c2ccc(Br)cc2)N(C)C)n1C.Cl (centres unmarked) [Example 5, 5-[Dimethylamino-(4-bromo-phenyl)-methyl]-1-methyl-1H-pyrrole-2-carboxylic acid butylamide hydrochloride]
- Noradrenalin uptake inhibition [%] conc. 10 (NA transporter): 86%
- 5-HT uptake inhibition [%] conc. 10 (5-HT uptake): 57%
- inhibition at 1 µM (human μ opiate receptor): 62%

SMILES: CN(C)C(c1ccc(Br)cc1)c1ccc(C(=O)N2CCOCC2)n1C.Cl (centres unmarked) [Example 8, {5-[(4-Bromo-phenyl)-dimethylamino-methyl]-1-methyl-1H-pyrrol-2-yl}-morpholin-4-yl-methanone hydrochloride]
- Noradrenalin uptake inhibition [%] conc. 10 (NA transporter): 43%
- 5-HT uptake inhibition [%] conc. 10 (5-HT uptake): 79%

SMILES: CCCCNC(=O)c1ccc(C(c2ccc(F)cc2)N(C)C)n1C.Cl (centres unmarked) [Example 2, 5-[Dimethylamino-(4-fluoro-phenyl)-methyl]-1-methyl-1H-pyrrole-2-carboxylic acid butylamide hydrochloride]
- Noradrenalin uptake inhibition [%] conc. 10 (NA transporter): 72%
- 5-HT uptake inhibition [%] conc. 10 (5-HT uptake): 52%
- Ki (human μ opiate receptor; [1]): 360 nM
- inhibition at 1 µM (human μ opiate receptor): 49%

SMILES: CN(C)C(c1ccc(F)cc1)c1ccc(C(=O)NC2CCCCC2)n1C.Cl (centres unmarked) [Example 1, 5-[Dimethylamino-(4-fluoro-phenyl)-methyl]-1-methyl-1H-pyrrole-2-carboxylic acid cyclohexylamide hydrochloride]
- Noradrenalin uptake inhibition [%] conc. 10 (NA transporter): 80%
- 5-HT uptake inhibition [%] conc. 10 (5-HT uptake): 57%
- Ki (human μ opiate receptor): 160 nM
- inhibition at 1 µM (human μ opiate receptor): 62%

SMILES: CN(C)C(c1ccccc1)c1ccc(C(=O)NC2CCCCC2)n1C.Cl (centres unmarked) [Example 9, 5-(Dimethylamino-phenyl-methyl)-1-methyl-1H-pyrrole-2-carboxylic acid cyclohexylamide hydrochloride]
- Noradrenalin uptake inhibition [%] conc. 10 (NA transporter): 70%
- inhibition at 1 µM (human μ opiate receptor): 76%

SMILES: CN(C)C(c1ccc(F)cc1)c1ccc(C(=O)N2CCCC2)n1C.Cl (centres unmarked) [Example 3, {5-[Dimethylamino-(4-fluoro-phenyl)-methyl]-1-methyl-1H-pyrrol-2-yl}-pyrrolidin-1-yl-methanone hydrochloride]
- Noradrenalin uptake inhibition [%] conc. 10 (NA transporter): 38%

SMILES: CN(C)C(c1ccc(Br)cc1)c1ccc(C(=O)NCCc2ccccc2)n1C.Cl (centres unmarked) [Example 7, 5-[(4-Bromo-phenyl)-dimethylamino-methyl]-1-methyl-1H-pyrrole-2-carboxylic acid phenethylamide hydrochloride]
- Noradrenalin uptake inhibition [%] conc. 10 (NA transporter): 95%
- 5-HT uptake inhibition [%] conc. 10 (5-HT uptake): 93%
- Ki (human μ opiate receptor): 1000 nM
- inhibition at 1 µM (human μ opiate receptor): 65%

SMILES: CN(C)C(c1ccc(Br)cc1)c1ccc(C(=O)N2CCCC2)n1C.Cl (centres unmarked) [Example 6, {5-[(4-Bromo-phenyl)-dimethylamino-methyl]-1-methyl-1H-pyrrol-2-yl)-pyrrolidin-1-yl-methanone hydrochloride]
- Noradrenalin uptake inhibition [%] conc. 10 (NA transporter): 83%
- 5-HT uptake inhibition [%] conc. 10 (5-HT uptake): 51%

SMILES: CN(C)C(c1ccc(Br)cc1)c1ccc(C(=O)NC2CCCCC2)n1C.Cl (centres unmarked) [Example 4, 5-[Dimethylamino-(4-bromo-phenyl)-methyl]-1-methyl-1H-pyrrole-2-carboxylic acid cyclohexylamide hydrochloride]
- Noradrenalin uptake inhibition [%] conc. 10 (NA transporter): 93%
- 5-HT uptake inhibition [%] conc. 10 (5-HT uptake): 72%
- Ki (human μ opiate receptor; [1]): 790 nM
- inhibition at 1 µM (human μ opiate receptor): 80%
